The source of these data is article PMC6407917, “Identification of GSK3186899/DDD853651 as a Preclinical Development Candidate for the Treatment of Visceral Leishmaniasis” (Journal of Medicinal Chemistry, 2018).

Targets include GSK3B (Homo sapiens, UniProt P49841); AZI2 (Homo sapiens, UniProt Q9H6S1); MAP2K1 (Homo sapiens, UniProt Q02750); PRKAB2 (Homo sapiens, UniProt O43741); MAP4K3 (Homo sapiens, UniProt Q8IVH8); LIMK2 (Homo sapiens, UniProt P53671); ITK (Homo sapiens, UniProt Q08881); PIM1 (Homo sapiens, UniProt P11309); SERPINB2 (Homo sapiens, UniProt P05120); EPHA5 (Homo sapiens, UniProt P54756); MAPK11 (Homo sapiens, UniProt Q15759); CSNK1G3 (Homo sapiens, UniProt Q9Y6M4); MAP2K5 (Homo sapiens, UniProt Q13163); EPHB6 (Homo sapiens, UniProt O15197); TAOK2 (Homo sapiens, UniProt Q9UL54); MINK1 (Homo sapiens, UniProt Q8N4C8); ULK3 (Homo sapiens, UniProt Q6PHR2); FLT4 (Homo sapiens, UniProt P35916); TBK1 (Homo sapiens, UniProt Q9UHD2); EGFR (Homo sapiens, UniProt P00533); PRKG1 (Homo sapiens, UniProt Q13976).

Common to all, as to assay: biochemical
What all share (set-up): species or system HEK293/K-562/placenta mixed human extract; Kinobeads chemoproteomic competition binding, quantified by TMT LC-MS/MS, dose response up to 20 uM

A word on the IC50: it is the point on the concentration scale where inhibition reaches its midpoint.

Sequence of EPHA5 (P54756 whole entry): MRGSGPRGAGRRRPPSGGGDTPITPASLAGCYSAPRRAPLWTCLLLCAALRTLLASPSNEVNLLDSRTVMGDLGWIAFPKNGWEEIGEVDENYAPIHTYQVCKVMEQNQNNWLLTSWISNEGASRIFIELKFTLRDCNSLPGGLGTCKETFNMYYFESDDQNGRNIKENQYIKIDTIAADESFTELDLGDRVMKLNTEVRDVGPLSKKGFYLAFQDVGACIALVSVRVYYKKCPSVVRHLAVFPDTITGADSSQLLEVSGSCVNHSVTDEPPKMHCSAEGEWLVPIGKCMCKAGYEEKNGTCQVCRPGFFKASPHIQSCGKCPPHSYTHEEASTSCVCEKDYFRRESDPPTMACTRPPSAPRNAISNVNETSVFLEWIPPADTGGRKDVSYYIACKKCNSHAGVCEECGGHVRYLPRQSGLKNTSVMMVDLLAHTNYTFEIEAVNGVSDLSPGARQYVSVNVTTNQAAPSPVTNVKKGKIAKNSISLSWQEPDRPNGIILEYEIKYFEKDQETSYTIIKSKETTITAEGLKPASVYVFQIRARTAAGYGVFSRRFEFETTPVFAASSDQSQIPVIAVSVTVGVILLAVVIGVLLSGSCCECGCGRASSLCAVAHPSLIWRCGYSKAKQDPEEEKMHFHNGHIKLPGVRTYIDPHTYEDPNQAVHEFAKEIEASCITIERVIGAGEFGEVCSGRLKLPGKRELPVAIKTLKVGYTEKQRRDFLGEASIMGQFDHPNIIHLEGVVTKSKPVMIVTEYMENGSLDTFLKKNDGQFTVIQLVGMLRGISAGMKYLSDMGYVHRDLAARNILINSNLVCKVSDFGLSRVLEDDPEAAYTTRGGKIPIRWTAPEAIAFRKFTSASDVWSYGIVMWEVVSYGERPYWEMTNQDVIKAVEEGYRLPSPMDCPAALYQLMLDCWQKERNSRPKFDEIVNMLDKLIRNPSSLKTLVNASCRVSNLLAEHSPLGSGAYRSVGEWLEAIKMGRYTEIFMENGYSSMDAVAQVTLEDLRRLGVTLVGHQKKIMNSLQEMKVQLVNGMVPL
Sequence of GSK3B (P49841 whole entry): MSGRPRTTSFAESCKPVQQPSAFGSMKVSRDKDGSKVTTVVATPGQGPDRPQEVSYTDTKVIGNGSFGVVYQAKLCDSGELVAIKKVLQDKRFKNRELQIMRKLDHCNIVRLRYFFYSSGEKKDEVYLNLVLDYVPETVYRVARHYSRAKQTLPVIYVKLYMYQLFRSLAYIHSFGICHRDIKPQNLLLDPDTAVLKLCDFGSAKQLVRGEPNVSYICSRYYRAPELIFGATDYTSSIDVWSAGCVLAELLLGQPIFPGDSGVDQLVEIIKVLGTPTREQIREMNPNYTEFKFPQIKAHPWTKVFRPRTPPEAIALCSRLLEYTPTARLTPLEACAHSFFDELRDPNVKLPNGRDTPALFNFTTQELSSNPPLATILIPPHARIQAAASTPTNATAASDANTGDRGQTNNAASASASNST
Sequence of CSNK1G3 (Q9Y6M4 whole entry): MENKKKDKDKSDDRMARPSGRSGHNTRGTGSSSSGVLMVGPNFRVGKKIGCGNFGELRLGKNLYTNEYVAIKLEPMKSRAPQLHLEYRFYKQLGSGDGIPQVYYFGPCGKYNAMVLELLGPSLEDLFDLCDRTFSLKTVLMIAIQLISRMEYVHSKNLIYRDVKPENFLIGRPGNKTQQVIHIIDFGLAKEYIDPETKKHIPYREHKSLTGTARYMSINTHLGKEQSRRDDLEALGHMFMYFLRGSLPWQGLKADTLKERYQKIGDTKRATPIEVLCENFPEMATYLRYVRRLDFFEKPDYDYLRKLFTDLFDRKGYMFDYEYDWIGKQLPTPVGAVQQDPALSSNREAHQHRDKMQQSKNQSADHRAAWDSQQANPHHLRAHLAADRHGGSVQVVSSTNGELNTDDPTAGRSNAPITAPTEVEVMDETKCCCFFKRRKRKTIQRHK
Sequence of MAPK11 (Q15759 whole entry): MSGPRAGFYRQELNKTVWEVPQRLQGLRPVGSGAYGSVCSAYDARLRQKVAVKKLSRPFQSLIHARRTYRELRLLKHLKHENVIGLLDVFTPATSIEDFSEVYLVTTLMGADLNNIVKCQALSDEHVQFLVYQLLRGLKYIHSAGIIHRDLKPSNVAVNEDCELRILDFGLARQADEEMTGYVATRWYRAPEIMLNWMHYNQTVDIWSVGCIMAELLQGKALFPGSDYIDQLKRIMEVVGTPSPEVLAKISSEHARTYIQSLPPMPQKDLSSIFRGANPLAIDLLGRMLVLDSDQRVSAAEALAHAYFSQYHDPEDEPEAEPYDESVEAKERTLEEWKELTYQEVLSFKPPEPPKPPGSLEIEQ
Sequence of FLT4 (P35916 whole entry): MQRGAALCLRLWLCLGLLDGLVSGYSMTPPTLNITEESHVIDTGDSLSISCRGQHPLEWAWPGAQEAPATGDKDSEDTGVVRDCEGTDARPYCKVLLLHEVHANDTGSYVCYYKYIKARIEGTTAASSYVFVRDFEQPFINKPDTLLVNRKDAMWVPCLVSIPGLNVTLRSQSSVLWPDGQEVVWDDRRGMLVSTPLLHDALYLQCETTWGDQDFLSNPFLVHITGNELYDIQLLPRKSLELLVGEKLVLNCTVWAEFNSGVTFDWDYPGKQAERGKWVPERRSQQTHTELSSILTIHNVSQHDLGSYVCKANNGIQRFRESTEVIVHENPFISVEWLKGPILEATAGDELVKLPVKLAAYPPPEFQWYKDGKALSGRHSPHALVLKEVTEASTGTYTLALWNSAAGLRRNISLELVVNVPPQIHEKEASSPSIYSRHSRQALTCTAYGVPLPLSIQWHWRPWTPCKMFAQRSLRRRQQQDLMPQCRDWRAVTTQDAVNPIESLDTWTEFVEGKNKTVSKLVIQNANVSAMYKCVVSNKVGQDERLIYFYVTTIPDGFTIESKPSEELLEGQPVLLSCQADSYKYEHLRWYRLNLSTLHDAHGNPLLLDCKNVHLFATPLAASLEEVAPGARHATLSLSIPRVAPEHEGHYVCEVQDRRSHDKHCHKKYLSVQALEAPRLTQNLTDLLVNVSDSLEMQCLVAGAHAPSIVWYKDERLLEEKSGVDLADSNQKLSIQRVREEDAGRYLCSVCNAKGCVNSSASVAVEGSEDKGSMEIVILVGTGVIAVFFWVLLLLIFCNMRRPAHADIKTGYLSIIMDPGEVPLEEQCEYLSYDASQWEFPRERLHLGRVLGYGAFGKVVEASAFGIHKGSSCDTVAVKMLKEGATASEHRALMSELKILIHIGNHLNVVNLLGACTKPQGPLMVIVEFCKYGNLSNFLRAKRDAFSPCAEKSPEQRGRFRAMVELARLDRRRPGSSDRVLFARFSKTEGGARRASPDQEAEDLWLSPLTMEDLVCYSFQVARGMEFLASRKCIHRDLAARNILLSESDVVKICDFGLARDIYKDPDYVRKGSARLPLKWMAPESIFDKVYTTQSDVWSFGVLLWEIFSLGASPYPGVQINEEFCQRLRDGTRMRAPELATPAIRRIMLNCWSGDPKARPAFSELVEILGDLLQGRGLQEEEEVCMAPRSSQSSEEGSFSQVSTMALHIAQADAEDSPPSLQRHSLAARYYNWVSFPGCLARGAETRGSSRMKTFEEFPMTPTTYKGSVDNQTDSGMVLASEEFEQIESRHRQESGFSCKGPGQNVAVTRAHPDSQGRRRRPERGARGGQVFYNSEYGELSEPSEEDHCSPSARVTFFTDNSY
Sequence of PRKG1 (Q13976 whole entry): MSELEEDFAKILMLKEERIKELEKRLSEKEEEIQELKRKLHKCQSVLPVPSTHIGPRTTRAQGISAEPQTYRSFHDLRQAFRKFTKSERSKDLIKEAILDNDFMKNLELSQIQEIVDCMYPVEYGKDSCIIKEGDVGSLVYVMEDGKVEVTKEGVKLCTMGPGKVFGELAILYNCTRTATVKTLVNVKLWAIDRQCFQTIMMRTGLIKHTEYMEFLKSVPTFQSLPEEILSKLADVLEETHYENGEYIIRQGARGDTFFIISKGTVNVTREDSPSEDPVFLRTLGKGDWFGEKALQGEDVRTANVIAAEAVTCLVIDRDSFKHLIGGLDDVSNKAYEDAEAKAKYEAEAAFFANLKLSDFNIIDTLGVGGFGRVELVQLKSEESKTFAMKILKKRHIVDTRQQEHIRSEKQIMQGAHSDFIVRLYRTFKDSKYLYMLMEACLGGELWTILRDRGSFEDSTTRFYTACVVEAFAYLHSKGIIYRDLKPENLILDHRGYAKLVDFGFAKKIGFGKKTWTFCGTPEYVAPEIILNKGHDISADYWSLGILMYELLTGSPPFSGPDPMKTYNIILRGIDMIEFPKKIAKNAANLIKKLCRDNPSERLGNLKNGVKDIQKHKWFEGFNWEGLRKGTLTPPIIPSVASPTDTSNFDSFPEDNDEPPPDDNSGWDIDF
Sequence of MAP2K5 (Q13163 whole entry): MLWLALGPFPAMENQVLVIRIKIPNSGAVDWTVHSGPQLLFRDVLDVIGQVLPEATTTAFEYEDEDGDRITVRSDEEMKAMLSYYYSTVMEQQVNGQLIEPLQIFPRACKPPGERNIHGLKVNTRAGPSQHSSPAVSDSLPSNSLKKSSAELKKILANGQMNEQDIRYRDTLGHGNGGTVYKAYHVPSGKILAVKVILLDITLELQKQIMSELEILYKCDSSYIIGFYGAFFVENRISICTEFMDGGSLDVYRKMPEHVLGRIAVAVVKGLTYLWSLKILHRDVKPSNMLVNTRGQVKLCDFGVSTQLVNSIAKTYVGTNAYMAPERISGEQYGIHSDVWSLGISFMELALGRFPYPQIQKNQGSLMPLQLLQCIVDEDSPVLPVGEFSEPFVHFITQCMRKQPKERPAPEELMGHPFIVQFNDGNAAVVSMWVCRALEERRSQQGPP
Sequence of PRKAB2 (O43741 whole entry): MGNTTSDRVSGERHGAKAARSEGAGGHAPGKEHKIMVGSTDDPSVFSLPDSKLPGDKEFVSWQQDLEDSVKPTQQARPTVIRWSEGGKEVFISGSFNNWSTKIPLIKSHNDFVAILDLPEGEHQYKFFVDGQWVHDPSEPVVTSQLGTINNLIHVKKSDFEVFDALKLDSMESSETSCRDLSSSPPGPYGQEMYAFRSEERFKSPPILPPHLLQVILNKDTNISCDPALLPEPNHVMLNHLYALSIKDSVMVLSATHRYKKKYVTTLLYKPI

With `COc1ccccc1-c1n[nH]c2nc(N[C@H]3CC[C@H](NS(=O)(=O)CCC(F)(F)F)CC3)nc(OC)c12` [compound 31, 3,3,3-Trifluoro-N-(trans-4-((4-methoxy-3-(2-methoxyphenyl)-1H-pyrazolo[3,4-d]pyrimidin-6-yl)amino)cyclohexyl)propane-1-sulfonamide], the IC50 on GSK3B, on AZI2, on MAP2K1, at PRKAB2, on MAP4K3 and on LIMK2 was at least 20 µM throughout. Moreover, the IC50 on ITK, at PIM1, at SERPINB2, at EPHA5, at MAPK11 and on CSNK1G3 was at least 20 µM throughout. Moreover, the IC50 on MAP2K5 was at least 20 µM; at EPHB6, at least 20 µM; on TAOK2, 5.2 µM; on MINK1, at least 20 µM; at ULK3, at least 20 µM; at FLT4 it was at least 20 µM. Further, the IC50 at TBK1, on EGFR and at PRKG1 was at least 20 µM in each case.
